In US20250145589A1, “PYRIDINE DERIVATIVE AND USE THEREOF” (SICHUAN HUIYU PHARMACEUTICAL CO., LTD., priority 2021, published 2025):

How the values were obtained:
PI3Kδ = PI3Kδ (Homo sapiens (Human), UniProt O00329); test: Inhibition of PI3Kδ efficacy assay (ADP-Glo kinase assay); assay type: biochemical; details: Table 4; read-out: PI3Kδ inhibitory activity (IC50)
Procedure, shortened: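 Luminescent ADP-Glo readout of PI3Kδ: after a 60 min RT reaction with PI/ATP substrate, ATP depletion (40 min) and ADP detection (40 min) steps followed. Compounds tested as eight five-fold serial dilutions; inhibition rates fitted to log(inhibitor) vs. response, variable slope, for IC50.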

[1] = tested on: NCI-H358 cells (KRAS G12C mutant); test: NCI-H358 cell proliferation inhibition (CellTiter-Glo); assay type: cell-based; details: Homo sapiens, NCI-H358, 72 h; H358 cells (G12C mutation), 3 days, Table 6; read-out: NCI-H358 (IC50)
[2] = tested on: NCI-H358-AMGR drug-resistant cell line; test: NCI-H358-AMGR drug-resistant cell proliferation inhibitory activity test; assay type: cell-based; details: 72 h; NCI-H358-AMGR drug-resistant cells, 3 days incubation, CellTiter-Glo
Procedure, shortened: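 Luminescent CellTiter-Glo read-out after 3-day, 37° C compound exposure (8 points, 5-fold series) of AMG510-resistant NCI-H358 cells plated at 4×10^3 per well.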

[3] = tested on: MIA PaCa-2 cells (KRAS G12C mutant); test: MIA PaCa-2 cell anti-proliferation (CellTiter-Glo); assay type: cell-based; details: Homo sapiens, 72 h; MIA Paca-2 cells, 3 days, Table 7; read-out: MIA PaCa-2 (IC50)
Procedure, shortened: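 Viable-cell luminescence (CellTiter-Glo, ≥30 min at 25 °C) measured after a 3-day, 37 °C exposure to compounds at 9 points, 4-fold spaced, in DMEM containing 10% FBS plus 2.5% horse serum. IC50 derived versus no-inhibitor wells.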

KRAS^G12C-SOS1 = KRAS^G12C-SOS1 (Homo sapiens (Human), UniProt P01116, G12C); test: HTRF KRAS G12C/SOS1 binding assay; details: Table 5
Sequence of KRAS^G12C-SOS1 (P01116-2 other isoform, or with tags, fused parts or gaps G12C): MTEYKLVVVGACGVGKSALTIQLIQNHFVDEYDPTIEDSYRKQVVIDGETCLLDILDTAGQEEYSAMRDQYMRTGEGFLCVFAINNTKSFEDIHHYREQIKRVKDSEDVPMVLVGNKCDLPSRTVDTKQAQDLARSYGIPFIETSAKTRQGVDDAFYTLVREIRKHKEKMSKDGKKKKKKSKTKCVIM
Procedure, shortened: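 Compound was serially diluted five-fold over eight points, with a 2 mM DMSO stock. After anti-tag-Tb3+ and anti-tag-XL665 were added, plates were incubated 3 h at 4 °C and read by HTRF (ex 337 nm, em 620/665 nm ratio). IC50 values come from four-parameter variable-slope fits.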

Sequence of PI3Kδ (O00329 whole entry): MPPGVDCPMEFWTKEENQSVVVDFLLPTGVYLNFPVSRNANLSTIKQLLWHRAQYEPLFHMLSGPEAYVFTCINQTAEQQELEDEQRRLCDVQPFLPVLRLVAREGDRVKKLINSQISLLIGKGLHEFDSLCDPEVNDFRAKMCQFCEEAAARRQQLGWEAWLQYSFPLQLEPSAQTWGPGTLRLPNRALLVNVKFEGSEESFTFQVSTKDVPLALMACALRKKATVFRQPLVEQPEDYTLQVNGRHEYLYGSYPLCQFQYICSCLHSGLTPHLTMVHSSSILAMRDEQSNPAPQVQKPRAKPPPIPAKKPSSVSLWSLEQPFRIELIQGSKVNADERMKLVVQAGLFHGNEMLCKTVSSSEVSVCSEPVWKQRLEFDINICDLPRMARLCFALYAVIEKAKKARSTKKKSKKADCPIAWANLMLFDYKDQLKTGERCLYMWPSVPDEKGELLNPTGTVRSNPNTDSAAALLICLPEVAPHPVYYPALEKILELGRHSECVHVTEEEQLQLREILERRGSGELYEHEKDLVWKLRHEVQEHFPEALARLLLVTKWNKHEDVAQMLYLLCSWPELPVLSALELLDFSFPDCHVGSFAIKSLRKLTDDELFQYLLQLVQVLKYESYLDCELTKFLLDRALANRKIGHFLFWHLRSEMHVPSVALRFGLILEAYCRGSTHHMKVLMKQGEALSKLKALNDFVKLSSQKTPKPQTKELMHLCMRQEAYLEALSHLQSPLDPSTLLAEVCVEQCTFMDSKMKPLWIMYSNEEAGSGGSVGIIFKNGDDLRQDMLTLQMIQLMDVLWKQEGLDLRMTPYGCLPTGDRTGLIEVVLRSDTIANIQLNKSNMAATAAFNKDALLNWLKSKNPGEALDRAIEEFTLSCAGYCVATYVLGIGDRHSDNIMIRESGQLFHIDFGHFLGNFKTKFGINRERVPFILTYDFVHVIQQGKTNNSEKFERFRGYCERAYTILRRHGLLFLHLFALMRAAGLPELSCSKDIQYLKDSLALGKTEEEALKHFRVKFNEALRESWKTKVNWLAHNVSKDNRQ
Sequence of PI3Kδ (P27986 whole entry partner): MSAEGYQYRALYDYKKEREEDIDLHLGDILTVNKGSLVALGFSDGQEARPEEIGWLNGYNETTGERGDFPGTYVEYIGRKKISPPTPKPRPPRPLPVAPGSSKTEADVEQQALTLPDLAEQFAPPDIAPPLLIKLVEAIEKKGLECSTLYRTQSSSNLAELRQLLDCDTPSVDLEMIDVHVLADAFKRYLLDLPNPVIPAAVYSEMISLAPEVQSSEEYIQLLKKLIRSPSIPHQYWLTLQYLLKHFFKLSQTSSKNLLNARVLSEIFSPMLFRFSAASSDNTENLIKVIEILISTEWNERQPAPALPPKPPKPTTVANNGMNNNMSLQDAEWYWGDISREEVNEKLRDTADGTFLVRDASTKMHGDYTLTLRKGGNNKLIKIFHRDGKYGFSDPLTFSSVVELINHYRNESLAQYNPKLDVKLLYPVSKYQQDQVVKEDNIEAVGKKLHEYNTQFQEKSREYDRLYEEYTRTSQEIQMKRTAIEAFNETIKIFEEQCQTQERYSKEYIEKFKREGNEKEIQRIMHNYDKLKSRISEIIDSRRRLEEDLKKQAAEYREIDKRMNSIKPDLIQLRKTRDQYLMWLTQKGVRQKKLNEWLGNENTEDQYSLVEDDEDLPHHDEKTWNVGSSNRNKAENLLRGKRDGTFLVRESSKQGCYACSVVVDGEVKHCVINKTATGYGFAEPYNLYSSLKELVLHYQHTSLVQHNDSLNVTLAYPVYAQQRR

| Structure (SMILES) | IC50 (PI3Kδ) | IC50 [1] | IC50 [2] | IC50 [3] | IC50 (KRAS^G12C-SOS1) |
| --- | --- | --- | --- | --- | --- |
| COc1ncc(-c2ccc3ncnc(N4CCN(C(=O)/C=C/C(C)=O)C[C@@H]4C)c3c2)cc1NS(=O)(=O)c1c(F)cc(F)cc1F [Example 154, (S,E)-2,4,6-trifluoro-N-(2-methoxy-5-(4-(2-methyl-4-(4-oxopent-2-enoyl)piperazin-1-yl)quinazolin-6-yl)pyridin-3-yl)benzenesulfonamide] | 13.8 nM | 16.7 nM | 61.6 nM | 28.8 nM | 183 nM |
| COc1ncc(-c2ccc3ncnc(N4CC5CCC(C4)N5C(=O)/C=C/C(C)=O)c3c2)cc1NS(=O)(=O)c1c(F)cc(F)cc1F [Example 155] | 53.1 nM | 40.3 nM | 164 nM | 77.6 nM | 462 nM |
| COc1ncc(-c2ccc3ncnc(N4CC5CCC4CN5C(=O)/C=C/C(C)=O)c3c2)cc1NS(=O)(=O)c1ccc(F)cc1F (centres unmarked) [Example 158, (E)-2,4-difluoro-N-(2-methoxy-5-(4-(5-(4-oxopent-2-enoyl)-2,5-diazabicyclo[2.2.2]octan-2-yl)quinazolin-6-yl)pyridin-3-yl)benzenesulfonamide] | 34.6 nM | 55.2 nM | 155 nM | 140 nM | 191 nM |
| COc1ncc(-c2ccc3ncnc(N4CCN(C(=O)/C=C/C(C)=O)CC4)c3c2)cc1NS(=O)(=O)c1sc(C)nc1C [Example 160, (E)-N-(2-methoxy-5-(4-(4-(4-oxopent-2-enoyl)piperazin-1-yl)quinazolin-6-yl)pyridin-3-yl)-2,4-dimethylthiazole-5-sulfonamide] | 15.2 nM | 13 nM | 69.5 nM | 48.4 nM | 169 nM |
| COc1ncc(-c2ccc3ncnc(N4CCC5(CC4)CN(C(=O)/C=C/C(C)=O)C5)c3c2)cc1NS(=O)(=O)c1ccc(F)cc1 [Example 161, (E)-4-fluoro-N-(2-methoxy-5-(4-(2-(4-oxopent-2-enoyl)-2,7-diazaspiro[3.5]nonan-7-yl)quinazolin-6-yl)pyridin-3-yl)benzenesulfonamide] | 9.9 nM | 43.4 nM | 145 nM | 67.8 nM | 284 nM |
| COc1ncc(-c2ccc3ncnc(N4CCN(C(=O)/C=C/C(C)=O)CC4)c3c2)cc1NS(=O)(=O)c1ncc(Cl)s1 [Example 165, (E)-5-chloro-N-(2-methoxy-5-(4-(4-(4-oxopent-2-enoyl)piperazin-1-yl)quinazolin-6-yl)pyridin-3-yl)thiazole-2-sulfonamide] | 12 nM | 36.5 nM | 171 nM | 250 nM | 362 nM |
| C=C(C(C)=O)C(=O)N1CCN(c2ncnc3ccc(-c4cnc(OC)c(NS(=O)(=O)c5ccc(F)cc5F)c4)cc23)CC1 [Example 168, 2,4-difluoro-N-(2-methoxy-5-(4-(4-(2-methylene-3-oxobutanoyl)piperazin-1-yl)quinazolin-6-yl)pyridin-3-yl)benzenesulfonamide] | 17.2 nM | 31.2 nM | 240 nM | 48.5 nM | 546 nM |
| COc1ncc(-c2ccc3ncnc(N4CCN(C(=O)/C=C/C(C)=O)CC4)c3c2)cc1NS(=O)(=O)c1ccc(F)cc1Cl [Example 169, (E)-2-chloro-4-fluoro-N-(2-methoxy-5-(4-(4-(4-oxopent-2-enoyl)piperazin-1-yl)quinazolin-6-yl)pyridin-3-yl)benzenesulfonamide] | 18.9 nM | 5.7 nM | 36.2 nM | 31.7 nM | 249 nM |
| COc1ncc(-c2ccc3ncnc(N4CCC5(CC4)CN(C(=O)/C=C/C(C)=O)C5)c3c2)cc1NS(=O)(=O)c1ccc(F)cc1Cl [Example 171, (E)-2-chloro-4-fluoro-N-(2-methoxy-5-(4-(2-(4-oxopent-2-enoyl)-2,7-diazaspiro[3.5]nonan-7-yl)quinazolin-6-yl)pyridin-3-yl)benzene-sulfonamide] | 40.1 nM | 5.7 nM | 41.5 nM | 12.6 nM | 441 nM |
| COc1ncc(-c2ccc3ncnc(N4CCN(C(=O)/C=C/C(C)=O)CC4)c3c2)cc1NS(=O)(=O)c1ccncc1C [Example 172, (E)-N-(2-methoxy-5-(4-(4-(4-oxopent-2-enoyl)piperazin-1-yl)quinazolin-6-yl)pyridin-3-yl)-3-methyl-pyridine-4-sulfonamide] | 11.3 nM | 68.1 nM | 451 nM | 171 nM | 622 nM |
| COc1ncc(-c2ccc3ncnc(N4CCN(C(=O)/C=C/C(C)=O)C[C@@H]4C)c3c2)cc1NS(=O)(=O)c1sc(C)nc1C [Example 173, (S,E)-N-(2-methoxy-5-(4-(2-methyl-4-(4-oxopent-2-enoyl)piperazin-1-yl)quinazolin-6-yl)pyridin-3-yl)-2,4-dimethyl-thiazole-5-sulfonamide] | 16.5 nM | 6.8 nM | 54.7 nM | 9.2 nM | 199 nM |
| COc1ncc(-c2ccc3ncnc(N4CCN(C(=O)/C=C/C(C)=O)C[C@@H]4C)c3c2)cc1NS(=O)(=O)c1ccc(F)cc1Cl [Example 174, (S,E)-2-chloro-4-fluoro-N-(2-methoxy-5-(4-(2-methyl-4-(4-oxopent-2-enoyl)piperazin-1-yl)quinazolin-6-yl)pyridin-3-yl)benzene-sulfonamide] | 17.1 nM | 15.8 nM | 28.6 nM | 15.6 nM | 423 nM |
| COc1ncc(-c2ccc3ncnc(N4CC5CCC(C4)N5C(=O)/C=C/C(C)=O)c3c2)cc1NS(=O)(=O)c1ccc(F)cc1Cl [Example 175, 2-chloro-4-fluoro-N-(2-methoxy-5-(4-(8-((E)-4-oxopent-2-enoyl)-3,8-diazabicyclo [3.2.1]octan-3-yl)quinazolin-6-yl)pyridin-3-yl)benzene-sulfonamide] | 16.2 nM | 22.3 nM | 58.1 nM | 22.8 nM | 288 nM |
| COc1ncc(-c2ccc3ncnc(N4CC5CCC(C4)N5C(=O)/C=C/C(C)=O)c3c2)cc1NS(=O)(=O)c1sc(C)nc1C [Example 176, N-(2-methoxy-5-(4-(8-((E)-4-oxopent-2-enoyl)-3,8-diazabicyclo [3.2.1]octan-3-yl)quinazolin-6-yl)pyridin-3-yl)-2,4-dimethyl-thiazole-5-sulfonamide] | 13.9 nM | 27 nM | 76.1 nM | 29.3 nM | 113 nM |
| COc1ncc(-c2ccc3ncnc(N4CCN(C(=O)/C=C/C(C)=O)CC4)c3c2)cc1NS(=O)(=O)c1ccc(Cl)cc1F [Example 177, (E)-4-chloro-2-fluoro-N-(2-methoxy-5-(4-(4-(4-oxopent-2-enoyl)piperazin-1-yl)quinazolin-6-yl)pyridin-3-yl)benzene-sulfonamide] | 19.1 nM | 36.1 nM | 48.9 nM | 25.9 nM | 246 nM |
| COc1ncc(-c2ccc3ncnc(N4CCC5(CC4)CN(C(=O)/C=C/C(C)=O)C5)c3c2)cc1NS(=O)(=O)c1sc(C)nc1C [Example 178, (E)-N-(2-methoxy-5-(4-(2-(4-oxopent-2-enoyl)-2,7-diazaspiro[3.5]nonan-7-yl)quinazolin-6-yl)pyridin-3-yl)-2,4-dimethyl-thiazole-5-sulfonamide] | 9.2 nM | 25.3 nM | 66.2 nM | 43.1 nM | 213 nM |
| COc1ccc(Cl)c(S(=O)(=O)Nc2cc(-c3ccc4ncnc(N5CCN(C(=O)/C=C/C(C)=O)CC5)c4c3)cnc2OC)c1 [Example 184, (E)-2-chloro-5-methoxy-N-(2-methoxy-5-(4-(4-(4-oxopent-2-enoyl)piperazin-1-yl)quinazolin-6-yl)pyridin-3-yl)benzene-sulfonamide] | 16.2 nM | 73.8 nM | 135 nM | 60.2 nM | 365 nM |
| [2H]C([2H])([2H])Oc1ncc(-c2ccc3ncnc(N4CCN(C(=O)/C=C/C(C)=O)CC4)c3c2)cc1NS(=O)(=O)c1ccc(F)cc1F [Example 191, (E)-2,4-difluoro-N-(2-(methoxy-d3)-5-(4-(4-(4-oxopent-2-enoyl)piperazin-1-yl)quinazolin-6-yl)pyridin-3-yl)benzene-sulfonamide] | 16.7 nM | 20.2 nM | 36.4 nM | 54.2 nM | 143 nM |
| COc1ncc(-c2ccc3ncnc(C4=CCN(C(=O)/C=C/C(C)=O)CC4)c3c2)cc1NS(=O)(=O)c1ccc(F)cc1F [Example 198, (E)-2,4-difluoro-N-(2-methoxy-5-(4-(1-(4-oxopent-2-enoyl)-1,2,3,6-tetrahydropyridin-4-yl)quinazolin-6-yl)pyridin-3-yl)benzenesulfonamide] | 13.3 nM | 12.2 nM | 22.1 nM | 8.7 nM | 133 nM |
